{
  "source": "paper PMC6445160",
  "about": "“Naphthoquinone amino acid derivatives, synthesis and biological activity as proteasome inhibitors” (Journal of Enzyme Inhibition and Medicinal Chemistry, 2017)",
  "data": [
    {"system": "T1, 20S proteasome β5 subunit, chymotrypsin-like (ChT-L) activity", "T1 construct": "gene PSMB5; native 20S proteasome purified from lymphoblastoid cells", "test": "fluorogenic AMC peptide hydrolysis", "type": "biochemical", "details": "Suc-LLVY-AMC, 37 °C, 30 min, enzyme pretreated with compound", "units": {"IC50": "µM"}, "values": [
      {"molecule": "Bz-Asn-NH-cHx-NH-ClNafQ [compound 39]", "IC50": "> 100"},
      {"molecule": "Bz-Ser-NH-cHx-NH-ClNafQ [compound 47]", "IC50": "> 100"},
      {"molecule": "HMB-Asn-NH-cHx-NH-ClNafQ [compound 37]", "IC50": "> 100"},
      {"molecule": "HMB-Leu-NH-cHx-NH-ClNafQ [compound 33]", "IC50": "> 100"},
      {"molecule": "HMB-Phe-NH-cHx-NH-ClNafQ [compound 41]", "IC50": "> 100"},
      {"molecule": "HMB-Ser-NH-cHx-NH-ClNafQ [compound 45]", "IC50": "> 100"},
      {"molecule": "NBz-Asn-NH-cHx-NH-ClNafQ [compound 38]", "IC50": "> 100"},
      {"molecule": "NBz-Ser-NH-cHx-NH-ClNafQ [compound 46]", "IC50": "> 100"}
    ]},
    {"system": "T1, 20S proteasome β5 subunit, chymotrypsin-like (ChT-L) activity", "test": "fluorogenic AMC peptide hydrolysis", "type": "biochemical", "details": "Suc-LLVY-AMC, 37 °C, 30 min, enzyme pretreated with compound; read-out: IC50 (μm)^aChT-L", "description": "fluorogenic AMC peptide hydrolysis on 20S proteasome β5 subunit, chymotrypsin-like (ChT-L) activity", "units": {"IC50": "µM"}, "values": [
      {"molecule": "1-NaftCO-Leu-NH-cHx-NH-ClNafQ [compound 36]", "IC50": "59.3 ± 6.42"},
      {"molecule": "CC(C)C[C@H](NC(=O)c1ccccc1)C(=O)NCCCCNC1=C(Cl)C(=O)c2ccccc2C1=O", "note": "[compound 19, Bz-Leu-NH-(CH2)4-NH-ClNafQ]", "IC50": "10.1 ± 0.7"},
      {"molecule": "CC(C)C[C@H](NC(=O)c1cccc2ccccc12)C(=O)NCCCCNC1=C(Cl)C(=O)c2ccccc2C1=O", "note": "[compound 20, 1-NaftCO-Leu-NH-(CH2)4-NH-ClNafQ]", "IC50": "49.3 ± 5.02"},
      {"molecule": "Cc1c(O)cccc1C(=O)N[C@@H](CC(N)=O)C(=O)NCCCCNC1=C(Cl)C(=O)c2ccccc2C1=O", "note": "[compound 21, HMB-Asn-NH-(CH2)4-NH-ClNafQ]", "IC50": "65.4 ± 6.5"},
      {"molecule": "NC(=O)CC(NC(=O)c1ccc([N+](=O)[O-])cc1)C(=O)NCCCCNC1=C(Cl)C(=O)c2ccccc2C1=O", "note": "(stereo not drawn) [compound 22, NBz-Asn-NH-(CH2)4-NH-ClNafQ]", "IC50": "28.5 ± 3.05"},
      {"molecule": "NC(=O)C[C@H](NC(=O)c1ccccc1)C(=O)NCCCCNC1=C(Cl)C(=O)c2ccccc2C1=O", "note": "[compound 23, Bz-Asn-NH-(CH2)4-NH-ClNafQ]", "IC50": "24.2 ± 2.05"},
      {"molecule": "NC(=O)C[C@H](NC(=O)c1cccc2ccccc12)C(=O)NCCCCNC1=C(Cl)C(=O)c2ccccc2C1=O", "note": "[compound 24, 1-NaftCO-Asn-NH-(CH2)4-NH-ClNafQ]", "IC50": "78.3 ± 6.95"},
      {"molecule": "Cc1c(O)cccc1C(=O)N[C@@H](Cc1ccccc1)C(=O)NCCCCNC1=C(Cl)C(=O)c2ccccc2C1=O", "note": "[compound 25, HMB-Phe-NH-(CH2)4-NH-ClNafQ]", "IC50": "17.5 ± 1.07"},
      {"molecule": "O=C(NC(Cc1ccccc1)C(=O)NCCCCNC1=C(Cl)C(=O)c2ccccc2C1=O)c1ccc([N+](=O)[O-])cc1", "note": "(stereo not drawn) [compound 26, NBz-Phe-NH-(CH2)4-NH-ClNafQ]", "IC50": "9.1 ± 0.6"},
      {"molecule": "O=C(N[C@@H](Cc1ccccc1)C(=O)NCCCCNC1=C(Cl)C(=O)c2ccccc2C1=O)c1ccccc1", "note": "[compound 27, Bz-Phe-NH-(CH2)4-NH-ClNafQ]", "IC50": "10.1 ± 0.7"},
      {"molecule": "O=C(N[C@@H](CO)C(=O)NCCCCNC1=C(Cl)C(=O)c2ccccc2C1=O)c1ccccc1", "note": "[compound 31, Bz-Ser-NH-(CH2)4-NH-ClNafQ]", "IC50": "84.1 ± 6.08"},
      {"molecule": "Bz-Leu-NH-cHx-NH-ClNafQ [compound 35]", "IC50": "23.1 ± 1.7"},
      {"molecule": "Bz-Phe-NH-cHx-NH-ClNafQ [compound 43]", "IC50": "73.3 ± 3.9"},
      {"molecule": "NBz-Leu-NH-(CH2)4-NH-ClNafQ [compound 18]", "IC50": "8.4 ± 0.72"},
      {"molecule": "NBz-Leu-NH-cHx-NH-ClNafQ [compound 34]", "IC50": "42.1 ± 5.02"},
      {"molecule": "NBz-Phe-NH-cHx-NH-ClNafQ [compound 42]", "IC50": "82.1 ± 6.52"}
    ]}
  ]
}
